Like-named read-outs stand apart in the source and are kept apart here.
Assays:
trypsin = assay: Inhibition of trypsin cleavage of PAR-2 peptide substrate; assay type: biochemical
Excerpt: (§1) FIG. 9. Effects of protease inhibitors on PAR-2 cleavage activity (Panel A) and EDN release activity (Panel B) of Alternaria extract. Alternaria extract, trypsin, or PMA was pretreated with pepstatin A agarose, control agarose, or APMSF, and added to the PAR-2 peptide substrate (Panel A) or eosinophils (Panel B). In Panel B, *, p<0.05 compared to no inhibitors, n=4.
(§2) A fluorescent quenched peptide substrate (Abz-SKGRSLIGK(Dnp)D) (SEQ ID NO:37), which spans the trypsin-cleavage site (between R and S) of PAR-2 was synthesized, and used it in an in vitro assay for PAR-2 cleavage and activation. […] Alternaria's activity was abolished when aspartate protease(s) was removed from the extract by pepstatin A agarose (FIG. 9); pepstatin A is a highly specific inhibitor for aspartate protease. […] Thus, an aspartate protease(s) in Alternaria extract, but not a serine protease(s), may be involved in the activation of eosinophils through PAR-2. this observation was confirmed by using other aspartate protease inhibitors, including alkalo-thermophilic bacillus inhibitor (ATBI), nelfinavir, and ritonavir.

[1] = test system: aspartate protease(s) in Alternaria extract; assay: Inhibition of PAR-2 cleavage activity of Alternaria extract; assay type: biochemical; conditions: extract pretreated with inhibitor
Excerpt: as §1, §2

eosinophils = assay type: cell-based, human; conditions: 3 hours at 37° C.
Protocol: FIG. 9. […] Alternaria extract, trypsin, or PMA was pretreated with pepstatin A agarose, control agarose, or APMSF, and added to the PAR-2 peptide substrate (Panel A) or eosinophils (Panel B).
To monitor eosinophil function in response to extracts from Alternaria, degranulation of human eosinophils was measured by quantitating released eosinophil-derived neurotoxin (EDN) and/or MBP. In brief, freshly isolated eosinophils were suspended in HBSS with 25 mM HEPES and 0.01% gelatin at 5×10^5 cells/mL. Eosinophils and stimuli were incubated in 96-well tissue culture plates for 3 hours at 37° C. and 5% CO^2. Cell-free supernatants were stored at −20° C. A specific RIA quantitated eosinophil degranulation by measuring the concentration of EDN in the supernatants.

N=C(N)c1ccc(CS(=O)(=O)F)cc1 [APMSF]
PAR-2 peptide cleavage activity of trypsin (trypsin): inhibited the activity | PAR-2 peptide cleavage activity of Alternaria extract [1]: insensitive | eosinophil degranulation (EDN release) induced by Alternaria extract (eosinophils): not | eosinophil degranulation (EDN release) induced by Alternaria extract (eosinophils; listed as APSF): did not inhibit
